Measurements as given in PMC7178524, “Comparative Pharmacokinetic Profiles of Puerarin in Rat Plasma by UHPLC-MS/MS after Oral Administration of Pueraria lobata Extract and Pure Puerarin” (Journal of Analytical Methods in Chemistry, 2020).

Experiments:
[1] = parameters: method as in PMID 29099639, PMID 29790819; details: coadministered with PUR, compared with the control group; cited from earlier work
[2] = system: P-gp; details: after added verapamil (P-gp inhibitor); ref "Studies have found", no number given; cited from earlier work
[3] = system: MRP2; details: after added probenecid (MRP2 inhibitor); ref "Studies have found", no number given; cited from earlier work
[4] = Stability of PUR in rat plasma (QC samples, four storage conditions); format: in vitro ADME; details: for Stability (RE, %) Postextraction: extracted rat plasma sample, auto sampler 4°C for 24 h; for Stability (RE, %) Postextraction / Stability (RE, %) 23°C–28°C/24 h / Stability (RE, %) −20°C/30 day / Stability (RE, %) Freeze-thaw (3 cycles): n = 3; for Stability (RE, %) 23°C–28°C/24 h / Stability (RE, %) −20°C/30 day / Stability (RE, %) Freeze-thaw (3 cycles): rat plasma; for Stability (RE, %) Freeze-thaw (3 cycles): −20°C to 25°C
Description: The stock solutions of PUR at a concentration of 200 μg/mL were prepared with methanol. A series of working solutions (4000, 1000, 400, 200, 100, and 40 ng/mL) were then prepared by diluting the stock solution with methanol. A 100 μg/mL IS stock solution was also prepared with methanol. A working solution of IS was prepared at a concentration of 100 ng/mL by diluting the stock solution with methanol. A standard calibration curve was prepared by adding 20 μL of the abovementioned PUR working solution and 20 μL of the IS working solution to 100 μL of blank plasma. The final plasma concentrations of PUR were in the concentration ranges of 800, 200, 80, 40, 20, and 8 ng/mL. QC samples of low, medium, and high concentrations (8, 80, and 720 ng/mL) of PUR were also prepared following the same procedure as described above. All solutions were kept at 4°C until use.
The stability of the PUR in rat plasma was investigated by analyzing QC samples under four different storage conditions, including three freeze-thaw cycles, room temperature 23−28°C for 24 h, −20°C for 30 days, and postextraction stability after the extracted samples being stored in the auto sampler at the temperature 4°C for 24 h. If the accuracy deviation was within ± 15%, the PUR was considered stable.

[5] = Pharmacokinetics of PUR in rat plasma after single oral administration, UHPLC-MS/MS; format: in vivo, male Wistar rats
Description: Male Wistar rats (250−270 g) were purchased from the SPF (Beijing) Biotechnology Co., Ltd. (Beijing, China). The rats were then housed in an animal room to adapt to the environment for a week at standard temperature (23−28°C), humidity (50−65%), free diet, and tap water. Rats were fasted for 12 h before pharmacokinetic experiments and allowed free access to water and sugar during sample collection. Both PUR and PLE were dispersed in a 0.5% carboxymethyl cellulose solution and then sonicated to obtain a homogeneous suspension. A whole blood sample was collected from the infraorbital vein and immediately centrifuged at 3,500 rpm for 10 minutes at 4°C to obtain plasma. Plasma was stored at −20°C for later analysis. The experimental protocol was approved by the Animal Experiment Ethics Review Committee of Jiangsu Vocational College of Medicine.
Chromatographic separation was performed using a Waters Acquity UHPLC system with an Acquity HSS T3 column (1.8 μm, 2.1 × 50 mm, Waters, Milford, MA). Mobile phase A consists of 0.1% aqueous formic acid solution, and mobile phase B consists of 0.1% formic acid acetonitrile. The gradient elution was as follows: 0 to 0.5 min, a linear gradient from 10 to 15% B; 0.5 to 2 min, 15 to 40% B; 2 to 4 min, 40 to 80% B; 4.1 to 5 min, 80 to 99% B; 5.1 to 7 min, a linear gradient back to 10% B. The flow rate was 0.3 mL/min. The column temperature was maintained at 40 °C, and the sample storage compartment was maintained at 4°C. Under these conditions, PUR and berberine hydrochloride were eluted at 2.0 and 3.2 minutes, respectively.
Mass spectrometric detection was performed on a Waters TQD tandem mass spectrometer equipped with an electrospray ionization (ESI) source. The mass spectrometer was operated in multiple reaction monitoring (MRM) positive-ion mode and was quantified using the following transitions: m/z 417.1 > 297.0 for PUR and m/z 336.0 > 320.0 for berberine hydrochloride, and the mass fragment spectrum of PUR and berberine hydrochloride is shown in Figure 2. For all transitions, the cone voltage of 35 V and a collision energy of 30 eV for both PUR and berberine hydrochloride were used, as shown in Table 1. The capillary voltage was set at 2.8 kV, and the source temperature was maintained at 500°C with a gas flow rate of 850 L/h. Argon is used as the collision gas. The cone gas flow was set at 50 L/h. Data acquisition were performed with MassLynx^TM software version 4.1, and quantitation was performed using TargetLynx^TM (Waters, Milford, MA, USA).
Rat plasma sample (100 μL) and IS solution (20 μL, 100 ng/mL) were added to a 1.5 mL Eppendorf tube and vortex-mixed for 30 s, followed by adding 500 μL of acetonitrile to precipitate protein. The mixture was then vortex-mixed for 2 min and centrifuged at 10,000 rpm for 10 min. The supernatant was evaporated to dryness under a stream of nitrogen gas. The obtained residue was reconstituted with methanol-water (80 : 20, v/v), then vortex-mixed for 3min and centrifuged at 13,000 rpm for 10 min. Finally, a 2 μL sample of the supernatant was injected into the UHPLC-MS/MS system for analysis.
The validated method was applied to determine the plasma concentration of PUR in rats after single oral administration of PLE at a dose of 763 mg/kg (equivalent to 100.0 mg/kg of PUR, 1 mL/100g BW) or administration of PUR at a dose of 100 mg/kg (1 mL/100g BW). Twelve male Wistar rats were randomly divided into two groups of six rats each and fasted for 12 h before the experiment. The whole blood samples were collected in heparinized tubes through the suborbital vein of rat at 0.25, 0.5, 0.75, 1, 1.5, 2, 3, 4, 6, 8, 12, 24, 36, and 48 h after gavage administration of drugs. The blood samples were immediately centrifuged at 3,500 rpm for 10 min to obtain plasma. Plasma was stored at −20°C until analysis. […]

[6] = male, Wistar, PUR in rat plasma, oral PUR 100 mg/kg, n = 6, mean ± SD

Structure (SMILES): CC1(C)[C@@H](O[C@H]2O[C@H](C(=O)O)[C@@H](O)[C@H](O)[C@H]2O[C@@H]2O[C@H](C(=O)O)[C@@H](O)[C@H](O)[C@H]2O)CC[C@]2(C)[C@H]3C(=O)C=C4[C@@H]5C[C@@](C)(C(=O)O)CC[C@]5(C)CC[C@@]4(C)[C@]3(C)CC[C@@H]12 [glycyrrhizin]
- effect on Tmax, Cmax, and AUC0-t of PUR [1]: significantly reduce

Structure (SMILES): O=c1c(-c2ccc(O)cc2)coc2c([C@@H]3O[C@H](CO)[C@@H](O)[C@H](O)[C@H]3O)c(O)ccc12 [PUR, daidzein-8-C-glucoside]
- increase of intestinal absorption of PUR [2]: 2.7 times
- increase of intestinal absorption of PUR [3]: 2.3 times
- Stability (RE, %) Postextraction ([4]; 8.0 ng/mL): −7.7%
- Stability (RE, %) Postextraction ([4]; 80.0 ng/mL): −6.3%
- Stability (RE, %) Postextraction ([4]; 720.0 ng/mL): 5.9%
- Stability (RE, %) 23°C–28°C/24 h ([4]; 8.0 ng/mL): 11.5%
- Stability (RE, %) −20°C/30 day ([4]; 8.0 ng/mL): 11.4%
- Stability (RE, %) Freeze-thaw (3 cycles) ([4]; 8.0 ng/mL): 9.3%
- Stability (RE, %) 23°C–28°C/24 h ([4]; 80.0 ng/mL): 6.5%
- Stability (RE, %) −20°C/30 day ([4]; 80.0 ng/mL): 6.2%
- Stability (RE, %) Freeze-thaw (3 cycles) ([4]; 80.0 ng/mL): 5.6%
- Stability (RE, %) 23°C–28°C/24 h ([4]; 720.0 ng/mL): 8.7%
- Stability (RE, %) −20°C/30 day ([4]; 720.0 ng/mL): −4.7%
- Stability (RE, %) Freeze-thaw (3 cycles) ([4]; 720.0 ng/mL): −5.1%
- stability in rat plasma under four tested conditions ([4]; three freeze/thaw cycles, −20°C for 30 days, 23°C to 28°C for 24 h, postextraction 4°C for 24 h, stable if deviation within ± 15%): stable
- AUC(0-inf) [5, 6]: 220 ± 64.4 ng·h/mL
- AUC(0-t) [5, 6]: 213 ± 61.9 ng·h/mL
- Tmax [5, 6]: 1.46 ± 1.08 h
- half-life [5, 6]: 1.6 ± 0.38 h
- CL/F ([5]; male, Wistar, PUR in rat plasma, oral PUR 100 mg/kg, n = 6, mean ± SD, read-out: CLz/F (converted)): 509 L/h/kg
- MRT last ([5]; male, Wistar, PUR in rat plasma, oral PUR 100 mg/kg, n = 6, mean ± SD, read-out: MRT 0-t): 2.22 ± 0.46 h
- Vd/F ([5]; male, Wistar, PUR in rat plasma, oral PUR 100 mg/kg, n = 6, mean ± SD, read-out: Vz/F): 1200 ± 403 L/kg
- Cmax ([5]; male, Wistar, rat plasma, oral puerarin 100 mg/kg, abstract, read-out: maximum concentration (Cmax) of puerarin): 102 ± 41.8 ng/mL
- shape of plasma concentration-time curve of PUR ([5]; oral pure PUR 100 mg/kg, rats): no double-peak phenomenon

Structure (SMILES): CC(C)(O)[C@@H]1CC[C@](C)([C@H]2[C@@H](O)C[C@@]3(C)[C@@H]4C[C@H](O[C@@H]5O[C@H](CO)[C@@H](O)[C@H](O)[C@H]5O)[C@H]5C(C)(C)[C@@H](O[C@@H]6OC[C@@H](O)[C@H](O)[C@H]6O)CC[C@@]56C[C@@]46CC[C@]23C)O1 [astragaloside IV]
- effect on Tmax, Cmax, and AUC0-t of PUR [1]: significantly reduce
